In PubChem BioAssay AID2060604 (Molecular Pharmacology Branch, DTP, NCI, 2025):

Test system: 379773-124-R-J2-PDC complex spheroids, viability % test/control
Assay: Anticancer human tumor 379773-124-R-J2-PDC patient-derived endometrial carcinoma cell line growth inhibition [CLK]
Details: for IC50: curve of first compound; for viability, T/C: stronger effect = lower value
How it was run: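 Patient-derived tumor cells grown as complex spheroids with HUVEC endothelial cells and mesenchymal stem cells, treated with drug combinations. Concentrations descend in half-log steps from near clinical Cmax, or from 10 microM if Cmax unknown.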

[1] = second compound 0.0316 µM, first compound 0.0316 µM
[2] = second compound 0.0316 µM, first compound 0.1 µM
[3] = second compound 0.0316 µM, first compound 0.316 µM
[4] = second compound 0.0316 µM, first compound 1 µM
[5] = second compound 0.0316 µM, first compound 3.16 µM
[6] = second compound 0.0316 µM, first compound 10 µM
[7] = second compound 0.1 µM, first compound 0.0316 µM
[8] = second compound 0.1 µM, first compound 0.1 µM
[9] = second compound 0.1 µM, first compound 0.316 µM
[10] = second compound 0.1 µM, first compound 1 µM
[11] = second compound 0.1 µM, first compound 3.16 µM
[12] = second compound 0.1 µM, first compound 10 µM
[13] = second compound 0.316 µM, first compound 0.0316 µM
[14] = second compound 0.316 µM, first compound 0.1 µM
[15] = second compound 0.316 µM, first compound 0.316 µM
[16] = second compound 0.316 µM, first compound 1 µM
[17] = second compound 0.316 µM, first compound 3.16 µM
[18] = second compound 0.316 µM, first compound 10 µM
[19] = second compound 1 µM, first compound 0.0316 µM
[20] = second compound 1 µM, first compound 0.1 µM
[21] = second compound 1 µM, first compound 0.316 µM
[22] = second compound 1 µM, first compound 1 µM
[23] = second compound 1 µM, first compound 3.16 µM
[24] = second compound 1 µM, first compound 10 µM
[25] = second compound 3.16 µM, first compound 0.0316 µM
[26] = second compound 3.16 µM, first compound 0.1 µM
[27] = second compound 3.16 µM, first compound 0.316 µM
[28] = second compound 3.16 µM, first compound 1 µM
[29] = second compound 3.16 µM, first compound 3.16 µM
[30] = second compound 3.16 µM, first compound 10 µM
[31] = second compound 10 µM, first compound 0.0316 µM
[32] = second compound 10 µM, first compound 0.1 µM
[33] = second compound 10 µM, first compound 0.316 µM
[34] = second compound 10 µM, first compound 1 µM
[35] = second compound 10 µM, first compound 3.16 µM
[36] = second compound 10 µM, first compound 10 µM
[37] = second compound 0.0316 µM, first compound 0.00316 µM
[38] = second compound 0.0316 µM, first compound 0.01 µM
[39] = second compound 0.1 µM, first compound 0.00316 µM
[40] = second compound 0.1 µM, first compound 0.01 µM
[41] = second compound 0.316 µM, first compound 0.00316 µM
[42] = second compound 0.316 µM, first compound 0.01 µM
[43] = second compound 1 µM, first compound 0.00316 µM
[44] = second compound 1 µM, first compound 0.01 µM
[45] = second compound 3.16 µM, first compound 0.00316 µM
[46] = second compound 3.16 µM, first compound 0.01 µM
[47] = second compound 10 µM, first compound 0.00316 µM
[48] = second compound 10 µM, first compound 0.01 µM
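Further: compound exposure lasted seven days before the viability readout.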
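Wherever viability, T/C is given: 100% = DMSO vehicle control wells.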

C#Cc1c(F)ccc2cc(O)cc(-c3ncc4c(N5CC6CCC(C5)N6)nc(OCC56CCCN5CC(F)C6)nc4c3F)c12 (stereo not given) + CNC(=O)c1ccc(Nc2nc(OC3CCCC3)c3c(-c4ccc5nc(C)oc5c4)c[nH]c3n2)c(OC)c1
IC50 (second compound 0.0316 µM): > 10000 nM | IC50 (second compound 0.1 µM): < 31.6 nM | IC50 (second compound 0.316 µM): < 31.6 nM | IC50 (second compound 1 µM): < 31.6 nM | IC50 (second compound 3.16 µM): < 31.6 nM | IC50 (second compound 10 µM): < 31.6 nM | viability, T/C [1]: 73.2% | viability, T/C [2]: 65% | viability, T/C [3]: 72.9% | viability, T/C [4]: 79.1% | viability, T/C [5]: 71.3% | viability, T/C [6]: 62% | viability, T/C [7]: 41.2% | viability, T/C [8]: 39% | viability, T/C [9]: 38.3% | viability, T/C [10]: 32.4% | viability, T/C [11]: 32.2% | viability, T/C [12]: 36% | viability, T/C [13]: 41% | viability, T/C [14]: 33.1% | viability, T/C [15]: 39% | viability, T/C [16]: 37.1% | viability, T/C [17]: 33.4% | viability, T/C [18]: 28.4% | viability, T/C [19]: 38.8% | viability, T/C [20]: 33% | viability, T/C [21]: 25.8% | viability, T/C [22]: 29.1% | viability, T/C [23]: 33.1% | viability, T/C [24]: 29% | viability, T/C [25]: 31.9% | viability, T/C [26]: 27.4% | viability, T/C [27]: 28.3% | viability, T/C [28]: 31.4% | viability, T/C [29]: 28% | viability, T/C [30]: 23.2% | viability, T/C [31]: 32.7% | viability, T/C [32]: 27.1% | viability, T/C [33]: 28% | viability, T/C [34]: 27.1% | viability, T/C [35]: 27.4% | viability, T/C [36]: 27.1%

CC(CO)NC(=O)c1cc(-c2ccc(Cl)cc2)nn(-c2cnn(C)c2)c1=O (stereo not given) + CNC(=O)c1ccc(Nc2nc(OC3CCCC3)c3c(-c4ccc5nc(C)oc5c4)c[nH]c3n2)c(OC)c1
IC50 (second compound 0.0316 µM): > 10000 nM | IC50 (second compound 0.1 µM): < 31.6 nM | IC50 (second compound 0.316 µM): < 31.6 nM | IC50 (second compound 1 µM): < 31.6 nM | IC50 (second compound 3.16 µM): < 31.6 nM | IC50 (second compound 10 µM): < 31.6 nM | viability, T/C [1]: 72% | viability, T/C [2]: 80.9% | viability, T/C [3]: 70.2% | viability, T/C [4]: 74.2% | viability, T/C [5]: 72.4% | viability, T/C [6]: 52.2% | viability, T/C [7]: 48.2% | viability, T/C [8]: 48.5% | viability, T/C [9]: 44.4% | viability, T/C [10]: 38.9% | viability, T/C [11]: 36.8% | viability, T/C [12]: 33.3% | viability, T/C [13]: 42.1% | viability, T/C [14]: 42.2% | viability, T/C [15]: 37.7% | viability, T/C [16]: 35.4% | viability, T/C [17]: 43.8% | viability, T/C [18]: 29.9% | viability, T/C [19]: 32.2% | viability, T/C [20]: 37.4% | viability, T/C [21]: 34.8% | viability, T/C [22]: 34.6% | viability, T/C [23]: 35.6% | viability, T/C [24]: 25.2% | viability, T/C [25]: 32.6% | viability, T/C [26]: 30% | viability, T/C [27]: 32.5% | viability, T/C [28]: 30.9% | viability, T/C [29]: 34.5% | viability, T/C [30]: 24.4% | viability, T/C [31]: 32% | viability, T/C [32]: 30.5% | viability, T/C [33]: 28.5% | viability, T/C [34]: 35.8% | viability, T/C [35]: 32.4% | viability, T/C [36]: 22.7%

CC(Nc1ccc2c(c1)OCCn1cc(N3C(=O)OCC3C(F)F)nc1-2)C(N)=O (stereo not given) + CNC(=O)c1ccc(Nc2nc(OC3CCCC3)c3c(-c4ccc5nc(C)oc5c4)c[nH]c3n2)c(OC)c1
IC50 (second compound 0.0316 µM): > 10000 nM | IC50 (second compound 0.1 µM): < 31.6 nM | IC50 (second compound 0.316 µM): < 31.6 nM | IC50 (second compound 1 µM): < 31.6 nM | IC50 (second compound 3.16 µM): < 31.6 nM | IC50 (second compound 10 µM): < 31.6 nM | viability, T/C [1]: 74.7% | viability, T/C [2]: 72.8% | viability, T/C [3]: 78.1% | viability, T/C [4]: 73.9% | viability, T/C [5]: 76.3% | viability, T/C [6]: 62.8% | viability, T/C [7]: 38.7% | viability, T/C [8]: 33.6% | viability, T/C [9]: 21.3% | viability, T/C [10]: 23.2% | viability, T/C [11]: 24.6% | viability, T/C [12]: 15.3% | viability, T/C [13]: 40.3% | viability, T/C [14]: 30.3% | viability, T/C [15]: 29.1% | viability, T/C [16]: 29.2% | viability, T/C [17]: 19.1% | viability, T/C [18]: 16.7% | viability, T/C [19]: 35.5% | viability, T/C [20]: 28.9% | viability, T/C [21]: 25.1% | viability, T/C [22]: 22.4% | viability, T/C [23]: 19.9% | viability, T/C [24]: 9.04% | viability, T/C [25]: 32.5% | viability, T/C [26]: 30% | viability, T/C [27]: 23% | viability, T/C [28]: 22.7% | viability, T/C [29]: 18.3% | viability, T/C [30]: 11.7% | viability, T/C [31]: 32.5% | viability, T/C [32]: 28.6% | viability, T/C [33]: 23.5% | viability, T/C [34]: 18.6% | viability, T/C [35]: 22.3% | viability, T/C [36]: 14%

CCN1CCN(Cc2ccc(Nc3ncc(F)c(-c4cc(F)c5nc(C)n(C(C)C)c5c4)n3)nc2)CC1 + CNC(=O)c1ccc(Nc2nc(OC3CCCC3)c3c(-c4ccc5nc(C)oc5c4)c[nH]c3n2)c(OC)c1
IC50 (second compound 0.0316 µM): > 1000 nM | IC50 (second compound 0.1 µM): < 3.16 nM | IC50 (second compound 0.316 µM): < 3.16 nM | IC50 (second compound 1 µM): < 3.16 nM | IC50 (second compound 3.16 µM): < 3.16 nM | IC50 (second compound 10 µM): < 3.16 nM | viability, T/C [37]: 74.5% | viability, T/C [38]: 77.5% | viability, T/C [1]: 75.4% | viability, T/C [2]: 76.6% | viability, T/C [3]: 87.1% | viability, T/C [4]: 81.5% | viability, T/C [39]: 32.6% | viability, T/C [40]: 48.7% | viability, T/C [7]: 40.5% | viability, T/C [8]: 31.1% | viability, T/C [9]: 42.7% | viability, T/C [10]: 37.2% | viability, T/C [41]: 31.9% | viability, T/C [42]: 41.5% | viability, T/C [13]: 40% | viability, T/C [14]: 38% | viability, T/C [15]: 44.6% | viability, T/C [16]: 31.5% | viability, T/C [43]: 43.2% | viability, T/C [44]: 30.3% | viability, T/C [19]: 31.3% | viability, T/C [20]: 30% | viability, T/C [21]: 36% | viability, T/C [22]: 34.1% | viability, T/C [45]: 33.8% | viability, T/C [46]: 31.4% | viability, T/C [25]: 34.2% | viability, T/C [26]: 31.5% | viability, T/C [27]: 44.9% | viability, T/C [28]: 28.5% | viability, T/C [47]: 32.5% | viability, T/C [48]: 24.3% | viability, T/C [31]: 35.7% | viability, T/C [32]: 30.9% | viability, T/C [33]: 37.3% | viability, T/C [34]: 33.2%

COc1c(OCCCN2CCOCC2)ccc2c3n(c(=NC(=O)c4cnc(N)nc4)nc12)CCN3 + CNC(=O)c1ccc(Nc2nc(OC3CCCC3)c3c(-c4ccc5nc(C)oc5c4)c[nH]c3n2)c(OC)c1
IC50 (second compound 0.0316 µM): 59.5 nM | IC50 (second compound 0.1 µM): < 3.16 nM | IC50 (second compound 0.316 µM): < 3.16 nM | IC50 (second compound 1 µM): < 3.16 nM | IC50 (second compound 3.16 µM): < 3.16 nM | IC50 (second compound 10 µM): < 3.16 nM | viability, T/C [37]: 81.8% | viability, T/C [38]: 85.6% | viability, T/C [1]: 65% | viability, T/C [2]: 37.5% | viability, T/C [3]: 6.4% | viability, T/C [4]: 2.99% | viability, T/C [39]: 31.6% | viability, T/C [40]: 29% | viability, T/C [7]: 25.3% | viability, T/C [8]: 14.5% | viability, T/C [9]: 4.25% | viability, T/C [10]: 1.91% | viability, T/C [41]: 34.9% | viability, T/C [42]: 32.7% | viability, T/C [13]: 19.5% | viability, T/C [14]: 10.1% | viability, T/C [15]: 3.08% | viability, T/C [16]: 1.56% | viability, T/C [43]: 38.9% | viability, T/C [44]: 25.7% | viability, T/C [19]: 17.8% | viability, T/C [20]: 7.48% | viability, T/C [21]: 1.73% | viability, T/C [22]: 1.03% | viability, T/C [45]: 28.3% | viability, T/C [46]: 24.1% | viability, T/C [25]: 15.3% | viability, T/C [26]: 8.87% | viability, T/C [27]: 2.29% | viability, T/C [28]: 0.59% | viability, T/C [47]: 22.5% | viability, T/C [48]: 21.5% | viability, T/C [31]: 16.8% | viability, T/C [32]: 7.19% | viability, T/C [33]: 1.54% | viability, T/C [34]: 0.67%
